Reference: patent publication US20150017673A1, “COMPOSITIONS AND METHODS FOR DRUG-SENSITIZATION OR INHIBITION OF A CANCER CELL” (priority 2012, published 2015)
Where two headings read alike, the source gives them in different places.

Tests used:
lymphoma cell line G3 = assay: Cell growth assay (resazurin fluorescence) on CHOP-resistant G3 NHL cells; assay type: cell-based, human; conditions: for Magnitude of potentiation in combination with doxorubicin: G3, lymphoma B cells
Description: (§1) Compositions were tested on CHOP-resistant G3 NHL cells that had been cultivated in RPMI medium for five days. Prior to assay, the cells were counted by haemocytometer and cell concentration standardized to 625,000 cells/ml. Test drugs were solubilized in 100% DMSO and then diluted to final assay concentration with 0.1M phosphate buffered saline (PBS) and a final DMSO concentration of 0.5%. Cells were added to assay plates containing the test drugs (rifabutin+148 ng/ml, 74 ng/ml, 37 ng/ml, or 0 ng/ml doxorubicin) and allowed to incubate for 96 hours at 37° C. and 5% CO2. The metabolic dye rezasurin was added to the wells of the assay plate at a final concentration of 20 μg/ml and the plates were incubated for an additional 24 hours. The plates were then read in a BMG Polarstar plate reader at wavelength (573-605) and the data plotted as OD versus increasing dilutions (i.e. decreasing total amounts) of rifabutin derivative concentration.

[1] = tested on: multi-drug resistant ovarian carcinoma cell line SK-OV3; assay: Cell growth assay on SK-OV3 cells; assay type: cell-based, human; conditions: SK-OV3, ovarian carcinoma
Description: as §1
(§2) In these experiments, the following cell lines were used: CHOP-resistant NHL cell line G3, CHOP-sensitive NHL cell line CRL2631, the multi-drug resistant sarcoma cell line MES-SA-Dx5; multi-drug-resistant breast cancer cell line MDA-MB-231, multi-drug resistant ovarian carcinoma cell line SK-OV3, multi-drug resistant ovarian cancer cell line NCI/ADR-RES, drug-sensitive ovarian cancer cell line OVCAR-5, and multi-drug resistant ovarian cancer cell line OVCAR-3. […]

[2] = tested on: multi-drug resistant ovarian cancer cell line OVCAR-3; assay: Cell growth assay on OVCAR-3 cells; assay type: cell-based; conditions: OVCAR-3, ovarian carcinoma
Description: as §1, §2

[3] = tested on: multi-drug-resistant breast cancer cell line MDA-MB-231; assay: Cell growth assay on MDA-MB-231 cells; assay type: cell-based; conditions: for IC50: Homo sapiens; for Magnitude of potentiation in combination with doxorubicin: MDA-MB-231, breast carcinoma
Description: as §1
(§3) In these experiments, the following cell lines were used: CHOP-resistant NHL cell line G3, CHOP-sensitive NHL cell line CRL2631, the multi-drug resistant sarcoma cell line MES-SA-Dx5; multi-drug-resistant breast cancer cell line MDA-MB-231, multi-drug resistant ovarian carcinoma cell line SK-OV3, multi-drug resistant ovarian cancer cell line NCI/ADR-RES, drug-sensitive ovarian cancer cell line OVCAR-5, and multi-drug resistant ovarian cancer cell line OVCAR-3.
(§4) Additional cell lines used include: ovarian cancer OVCAR-8, T lymphoblastoid leukemia MOLT-4, dexamethasone-resistant multiple myeloma MM.1R, myeloid leukemia cells HL-60, osteosarcoma cells U-2 OS, and myeloma RPMI 8226.

ROS in G3 lymphoma cells = assay: Intracellular ROS (CellROX, flow cytometry) in G3 cells; assay type: cell-based, human; conditions: 10 uM, FIG. 40
Description: Cells were then stained with the fluorescent ROS indicator, CellROX, and subjected to flow cytometry to quantitate total intracellular ROS.
The electron transport chain (ETC) is known to be a primary generator of ROS in the cell. Most of the ROS is generated by Complexes I and III of the ETC Inhibition of Complex I results in electrons piling up and leaking to react with oxygen to produce ROS.
All samples were analyzed at the same time in flow cytometry.

[4] = tested on: multi-drug resistant ovarian cancer cell line NCI/ADR-RES; assay: Cell growth assay on NCI/ADR-RES cells; assay type: cell-based; conditions: NCI/ADR-RES, ovarian carcinoma
Description: as §1, §3, §4

[5] = analog alone, lymphoma cell line G3, read-out: IC50
[6] = with 1 μM doxorubicin, lymphoma cell line G3, read-out: IC50 (μM) with doxorubicin (1 μM)

| Molecule | IC50 (lymphoma cell line G3; [5]) | Fold increase in potency over DOX alone (lymphoma cell line G3; lymphoma cell line G3) | IC50 (lymphoma cell line G3; [6]) | Magnitude of potentiation in combination with doxorubicin [1] | Magnitude of potentiation in combination with doxorubicin [2] | other results |
| --- | --- | --- | --- | --- | --- | --- |
| 11-deoxy-11-imino-4-deoxy-3,4[2-spiro-[1-(2-methoxyethyl)- piperidin-4-yl]]-(1H)-imidazo-(2,5-dihydro)rifamycin S [RTI-51] | > 64 µM | 0.7 fold | 3.3 µM | + (potentiation between 1.2 to 2.0 fold increase) | + (potentiation between 1.2 to 2.0 fold increase) |  |
| CC[C@]1(O)C[C@@H]2CN(CCc3c([nH]c4ccccc34)[C@@](C(=O)OC)(c3cc4c(cc3OC)N(C)[C@H]3[C@@](O)(C(=O)OC)[C@H](OC(C)=O)[C@]5(CC)C=CCN6CC[C@]43[C@@H]65)C2)C1 [Vinblastine, vinblastine] |  |  |  |  |  | IC50 (lymphoma cell line G3; Homo sapiens, therapeutic drug alone, G3, read-out: IC50): 8 µM; IC50 (lymphoma cell line G3; Homo sapiens, therapeutic drug with Rifabutin, G3, read-out: IC50 (μM) with Rifabutin): 1 µM; Fold increase in potency (lymphoma cell line G3; with vs without Rifabutin, G3): 8.0 fold |
| COC1C=COC2(C)Oc3c(C)c(O)c4c(c3C2=O)C2=NC3(CCN(C(=O)NCC(C)C)CC3)NC2=C(NC(=O)C(C)=CC=CC(C)C(O)C(C)C(O)C(C)C(OC(C)=O)C1C)C4=O (stereo not shown) [RTI-102, 4-deoxy-3,4[2-spiro-[1-(isobutylaminocarbonyl)-piperidin-4-yl]]-(1H)-imidazo-(2,5-dihydro)rifamycin S] | > 64 µM | 2.5 fold | 0.95 µM | +++ (potentiation greater than 5 fold increase) |  | Magnitude of potentiation in combination with doxorubicin (lymphoma cell line G3): ++ (potentiation between 2.1 to 5 fold increase) |
| Nc1ccn([C@@H]2O[C@H](CO)[C@@H](O)C2(F)F)c(=O)n1 [Gemcitabine, gemcitabine] |  |  |  |  |  | IC50 ([3]; therapeutic drug alone, MDA-MB-231, read-out: IC50): > 32 µM; IC50 ([3]; therapeutic drug with Rifabutin, MDA-MB-231, read-out: IC50 (μM) with Rifabutin): 4.83 µM; Fold increase in potency ([3]; with vs without Rifabutin, MDA-MB-231): >6.6 fold |
| CC(=O)OCOC(=O)CN(CC(=O)OCOC(C)=O)c1ccccc1OCCOc1ccccc1N(CC(=O)OCOC(C)=O)CC(=O)OCOC(C)=O [BAPTA-AM] |  |  |  |  |  | ROS levels (ROS in G3 lymphoma cells): induced ROS |
| O=c1[nH]c2ccccc2n1C1CCN(Cc2ccc(-c3nc4cc5[nH]cnc5cc4nc3-c3ccccc3)cc2)CC1 [Akt Inhibitor VIII] |  |  |  |  |  | CHOP resistance (lymphoma cell line G3; G3 cells, varying amounts of Akt Inhibitor VIII): dose-dependent reversal of CHOP resistance |
| 11-deoxy-11-imino-4-deoxy-3,4[2-spiro-[1- (ethylaminocarbonyl)-piperidin-4-yl]]-(1H)-imidazo-(2,5- dihydro)rifamycin S [RTI-82] | > 64 µM | 0.7 fold | 3.5 µM |  |  | Magnitude of potentiation in combination with doxorubicin [3]: +++ (potentiation greater than 5 fold increase) |
| 4-deoxy-3,4[2-spiro-[1-(n-propyloxycarbonyl)-piperidin-4-yl]]- (1H)-imidazo-(2,5-dihydro)rifamycin S [RTI-78] | 58 µM | 29.5 fold | 0.08 µM |  |  |  |
| COC1C=COC2(C)Oc3c(C)c(O)c4c(c3C2=N)C2=NC3(CCN(C(=O)NCC(C)C)CC3)NC2=C(NC(=O)C(C)=CC=CC(C)C(O)C(C)C(O)C(C)C(OC(C)=O)C1C)C4=O (stereo not shown) [RTI-182, 11-deoxy-11-imino-4-deoxy-3,4[2-spiro-[1-(isobutylaminocarbonyl)-piperidin-4-yl]]-(1H)-imidazo-(2,5-dihydro)rifamycin S] | 62 µM | 2.0 fold | 1.2 µM | ++ (potentiation between 2.1 to 5 fold increase) | + (potentiation between 1.2 to 2.0 fold increase) | Magnitude of potentiation in combination with doxorubicin (lymphoma cell line G3): + (potentiation between 1.2 to 2.0 fold increase); Magnitude of potentiation in combination with doxorubicin [3]: ++ (potentiation between 2.1 to 5 fold increase) |
| COC1C=COC2(C)Oc3c(C)c(O)c4c(c3C2O)C2=NC3(CCN(CC(C)C)CC3)NC2=C(NC(=O)C(C)=CC=CC(C)C(O)C(C)C(O)C(C)C(OC(C)=O)C1C)C4=O (stereo not shown) [RTI-174, 11-deoxy-11-hydroxy-4-deoxy-3,4[2-spiro-[1-(2-methylpropyl)-piperidin-4-yl]]-(1H)-imidazo-(2,5-dihydro)rifamycin S] | 51 µM | 3.7 fold | 0.64 µM | + (potentiation between 1.2 to 2.0 fold increase) | + (potentiation between 1.2 to 2.0 fold increase) | Magnitude of potentiation in combination with doxorubicin [4]: + (potentiation between 1.2 to 2.0 fold increase); Magnitude of potentiation in combination with doxorubicin (lymphoma cell line G3): ++ (potentiation between 2.1 to 5 fold increase) |
| COC1C=COC2(C)Oc3c(C)c(O)c4c(c3C2N)C2=NC3(CCN(C(=O)NCC(C)C)CC3)NC2=C(NC(=O)C(C)=CC=CC(C)C(O)C(C)C(O)C(C)C(OC(C)=O)C1C)C4=O (stereo not shown) [RTI-183, 11-deoxy-11-amino-4-deoxy-3,4[2-spiro-[1-(isobutylaminocarbonyl)-piperidin-4-yl]]-(1H)-imidazo-(2,5-dihydro)rifamycin S] | > 64 µM | 0.5 fold | 5.19 µM |  | + (potentiation between 1.2 to 2.0 fold increase) |  |
| COC1C=COC2(C)Oc3c(C)c(O)c4c(c3C2N)C2=NC3(CCN(CC(C)C)CC3)NC2=C(NC(=O)C(C)=CC=CC(C)C(O)C(C)C(O)C(C)C(OC(C)=O)C1C)C4=O (stereo not shown) [RTI-181, 11-deoxy-11-amino-4-deoxy-3,4[2-spiro-[1-(2-methylpropyl)-piperidin-4-yl]]-(1H)-imidazo-(2,5-dihydro)rifamycin S] | 52 µM | 5.5 fold | 0.43 µM | +++ (potentiation greater than 5 fold increase) | + (potentiation between 1.2 to 2.0 fold increase) | Magnitude of potentiation in combination with doxorubicin (lymphoma cell line G3): +++ (potentiation greater than 5 fold increase) |
| COC1C=COC2(C)Oc3c(C)c(O)c4c(c3C2=N)C2=NC3(CCN(CCN5CCOCC5)CC3)NC2=C(NC(=O)C(C)=CC=CC(C)C(O)C(C)C(O)C(C)C(OC(C)=O)C1C)C4=O (stereo not shown) [RTI-53, 11-deoxy-11-imino-4-deoxy-3,4[2-spiro-[1-(2-morpholinoethyl)-piperidin-4-yl]]-(1H)-imidazo-(2,5-dihydro)rifamycin S] | > 64 µM | 0.2 fold | 11.8 µM | + (potentiation between 1.2 to 2.0 fold increase) | + (potentiation between 1.2 to 2.0 fold increase) |  |
| C=C(C)[C@H]1Cc2c(ccc3c2O[C@@H]2COc4cc(OC)c(OC)cc4[C@@H]2C3=O)O1 [Rotenone, rotenone] |  |  |  |  |  | ROS levels (ROS in G3 lymphoma cells): induced ROS |
